Among the test systems are A498; A549; ACHN; HL-60; HOP-62; HOP-92; HT-29; KM12; LOX IMVI; MDA-MB-435; Malme-3M; NCI/ADR-RES; OVCAR-4; PC-3; RXF 393; SK-OV-3; SN12C; SW-620; UACC-257; UACC-62.
Assay in all cases: growth of human tumour cells (NCI), 48 h

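Protocol summary: plate cells (96-well), add compound at 5 concentrations, incubate 48 h, interpolate endpoints linearly. The concentration for 50% growth inhibition is given as GI50.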 Calls of active or inactive are those of the source. No stated cut-off is given here; in the data, active = GI50 up to about 1.1 µM and inactive = higher.

For `COc1cccc(-c2cc(=O)c3cc(N4CCCCC4)ccc3[nH]2)c1`, the GI50 in the experiment with A498 is 0.0188 µM (active); with A549, < 0.0206 µM (active); with ACHN, < 0.0186 µM (active); in the experiment on HL-60 it was < 0.01 µM (active); in the experiment with HOP-62, < 0.0145 µM (active); in the experiment with HOP-92, 13.1 µM (inactive). Moreover, the GI50 with HT-29 is < 0.0129 µM (active); with KM12, < 0.01 µM (active); with LOX IMVI, < 0.0177 µM (active); in the experiment on MDA-MB-435 it was < 0.01 µM (active); with Malme-3M it was 13.7 µM (inactive); in the experiment on NCI/ADR-RES, 0.02 µM (active). The GI50 was 1.51 µM (inactive) with OVCAR-4; < 0.0129 µM (active) in the experiment on PC-3; < 0.01 µM (active) in the experiment on RXF 393; 0.0316 µM (active) in the experiment on SK-OV-3; 0.0332 µM (active) in the experiment with SN12C; < 0.0145 µM (active) in the experiment with SW-620. For the same compound, the GI50 in the experiment on UACC-257 was > 100 µM (inactive); in the experiment with UACC-62, < 0.01 µM (active).

With `O=S1(=O)OCCOS(=O)(=O)C1C1c2ccccc2-c2ccccc21`, the GI50 is > 100 µM (inactive) with A498; 40.8 µM (inactive) in the experiment on A549; 27.2 µM (inactive) with ACHN; 15.5 µM (inactive) in the experiment with HL-60; 29.3 µM (inactive) with HOP-62; > 100 µM (inactive) in the experiment on HOP-92. Also, the GI50 with HT-29 is 34 µM (inactive); in the experiment on KM12 it was 41.5 µM (inactive); in the experiment with LOX IMVI, 14.8 µM (inactive); with MDA-MB-435 it was 33.6 µM (inactive); in the experiment on Malme-3M it was 56.2 µM (inactive); with NCI/ADR-RES, 25.7 µM (inactive). For the same compound, the GI50 with OVCAR-4 was 23 µM (inactive); in the experiment on PC-3, 90.4 µM (inactive); in the experiment on RXF 393 it was 50.9 µM (inactive); in the experiment on SK-OV-3, 40.3 µM (inactive); with SN12C it was 48.6 µM (inactive); with SW-620 it was 26.9 µM (inactive). In addition, the GI50 in the experiment on UACC-257 was 36.4 µM (inactive); in the experiment on UACC-62 it was 21.7 µM (inactive).

For `CC(=O)O[C@H]1[C@@H](N2CCOCC2)C[C@H]2[C@@H]3CC=C4C[C@@H](N5CCCC5)CC[C@]4(C)[C@H]3CC[C@@]21C`, the GI50 in the experiment on A498 was > 100 µM (inactive); in the experiment on A549, > 100 µM (inactive); with ACHN it was > 100 µM (inactive); in the experiment on HL-60, 56.4 µM (inactive); with HOP-62, > 100 µM (inactive); in the experiment with HOP-92 it was 85.9 µM (inactive). For the same compound, the GI50 was 5.21 µM (inactive) with HT-29; > 100 µM (inactive) in the experiment on KM12; > 100 µM (inactive) with LOX IMVI; > 100 µM (inactive) in the experiment with MDA-MB-435; > 100 µM (inactive) in the experiment on Malme-3M; > 100 µM (inactive) with NCI/ADR-RES. Moreover, the GI50 in the experiment with OVCAR-4, in the experiment on PC-3, with RXF 393, with SK-OV-3, with SN12C and in the experiment with SW-620 was > 100 µM (inactive) each time. Moreover, the GI50 in the experiment on UACC-257 and in the experiment with UACC-62 was > 100 µM (inactive) in each case.

Take `CCCCn1c(C)c(C(=O)CC)c(C(=O)NCCN2CCN(c3ccccc3Cl)CC2)c1C`: the GI50 with A498 was 17.5 µM (inactive); with A549, 16.3 µM (inactive); with ACHN it was 16.4 µM (inactive); with HL-60 it was 15.2 µM (inactive); with HOP-62, 20.2 µM (inactive); with HOP-92, 14.1 µM (inactive). In addition, the GI50 in the experiment with HT-29 was 13.4 µM (inactive); with KM12, 19.8 µM (inactive); with LOX IMVI, 19.3 µM (inactive); in the experiment on MDA-MB-435, 18.9 µM (inactive); in the experiment on Malme-3M, 18.1 µM (inactive); in the experiment on NCI/ADR-RES, 16 µM (inactive). For the same compound, the GI50 in the experiment on OVCAR-4 is 17.6 µM (inactive); in the experiment on PC-3, 16.1 µM (inactive); in the experiment with RXF 393, 19.9 µM (inactive); in the experiment on SK-OV-3 it was 19.4 µM (inactive); in the experiment on SN12C, 16.1 µM (inactive); in the experiment on SW-620, 47.1 µM (inactive). Also, the GI50 with UACC-257 was 13.4 µM (inactive); with UACC-62, 15.8 µM (inactive).

In the case of `OC1(c2ccc(Cl)cc2)c2c(ccc3c2OCO3)C2=NCCN21` (stereo not given), the GI50 in the experiment with A498 is 20.1 µM (inactive); in the experiment on A549, 70.3 µM (inactive); in the experiment with ACHN, 38 µM (inactive); in the experiment with HL-60, 38.8 µM (inactive); in the experiment on HOP-62, 58.3 µM (inactive); in the experiment on HOP-92, 16.7 µM (inactive). For the same compound, the GI50 with HT-29 is 29.6 µM (inactive); with KM12 it was 19.6 µM (inactive); with LOX IMVI it was 30.5 µM (inactive); in the experiment on MDA-MB-435, 28.1 µM (inactive); with Malme-3M, 1.23 µM (inactive); with NCI/ADR-RES it was > 100 µM (inactive). The GI50 with OVCAR-4 was 45.8 µM (inactive); with PC-3, 42.7 µM (inactive); in the experiment on RXF 393, 26.7 µM (inactive); in the experiment with SK-OV-3, 68.1 µM (inactive); with SN12C it was 53.7 µM (inactive); with SW-620 it was 97.9 µM (inactive). In addition, the GI50 with UACC-257 is 19.1 µM (inactive); in the experiment on UACC-62, 19 µM (inactive).

As to `CCCCCCCCSC1=C(Cl)C(=O)C(OC)=C(OC)C1=O`, the GI50 with A498 was 12.3 µM (inactive); in the experiment with A549 it was 17.9 µM (inactive); with ACHN it was 10 µM (inactive); with HL-60, 2.11 µM (inactive); with HOP-62, 17.2 µM (inactive); with HOP-92, 17 µM (inactive). Moreover, the GI50 with HT-29 is 16.9 µM (inactive); in the experiment with KM12, 7.53 µM (inactive); in the experiment with LOX IMVI, 4.57 µM (inactive); with MDA-MB-435 it was 4.45 µM (inactive); in the experiment with Malme-3M it was 7.73 µM (inactive); in the experiment on NCI/ADR-RES, 17.4 µM (inactive). Further, the GI50 with OVCAR-4 is 11.1 µM (inactive); in the experiment on PC-3, 14.2 µM (inactive); in the experiment on RXF 393, 13.2 µM (inactive); in the experiment with SK-OV-3 it was 23.1 µM (inactive); in the experiment with SN12C, 5.09 µM (inactive); in the experiment on SW-620, 10.6 µM (inactive). In addition, the GI50 in the experiment on UACC-257 is 5.6 µM (inactive); with UACC-62, 10.3 µM (inactive).

For `O=C1OC2(C(F)(F)F)Oc3ccccc3CN2C12CCCCC2` (stereo not given), the GI50 was 53.8 µM (inactive) in the experiment on A498; 28.6 µM (inactive) in the experiment with A549; 19.7 µM (inactive) in the experiment on ACHN; 16.5 µM (inactive) in the experiment on HL-60; 29.2 µM (inactive) in the experiment with HOP-62; 24.9 µM (inactive) with HOP-92. In addition, the GI50 in the experiment with HT-29 was 23.7 µM (inactive); in the experiment with KM12 it was 23.8 µM (inactive); with LOX IMVI, 22.4 µM (inactive); in the experiment on MDA-MB-435 it was 39.6 µM (inactive); with Malme-3M it was 18 µM (inactive); in the experiment with NCI/ADR-RES, 31.1 µM (inactive). For the same compound, the GI50 in the experiment on OVCAR-4 is 31.8 µM (inactive); in the experiment with PC-3 it was 27.6 µM (inactive); with RXF 393 it was 20.4 µM (inactive); in the experiment with SK-OV-3 it was 26.7 µM (inactive); in the experiment with SN12C it was 24.7 µM (inactive); in the experiment on SW-620, 35.6 µM (inactive). Also, the GI50 in the experiment with UACC-257 is 27 µM (inactive); with UACC-62, 28 µM (inactive).

Regarding `C#C[C@]1(O)CC[C@H]2[C@@H]3CCC4=C/C(=N\OCCN5CCCCC5)CC[C@]4(C)[C@H]3CC[C@@]21C`, the GI50 in the experiment with A498 was 6.15 µM (inactive); in the experiment with A549 it was 7.08 µM (inactive); in the experiment on ACHN it was 8.3 µM (inactive); in the experiment with HL-60, 3.19 µM (inactive); in the experiment on HOP-62 it was 11 µM (inactive); in the experiment with HOP-92, 15 µM (inactive). In addition, the GI50 in the experiment on HT-29 is 6.67 µM (inactive); in the experiment on KM12 it was 3.44 µM (inactive); with LOX IMVI it was 3.58 µM (inactive); in the experiment with MDA-MB-435, 2.24 µM (inactive); with Malme-3M it was 8.79 µM (inactive); in the experiment with NCI/ADR-RES, 3.52 µM (inactive). Also, the GI50 in the experiment with OVCAR-4 was 13.6 µM (inactive); in the experiment with PC-3 it was 3.39 µM (inactive); with RXF 393, 2.86 µM (inactive); with SK-OV-3 it was 16 µM (inactive); in the experiment with SN12C it was 6.89 µM (inactive); with SW-620, 4.33 µM (inactive). Moreover, the values for the GI50 with UACC-257 and in the experiment with UACC-62 were 3.98 µM (inactive) and 3.32 µM (inactive), respectively.

As to `NC1CNC(=O)c2c(Cl)sc(Cl)c21` (stereo not given), the GI50 in the experiment with A498 is > 100 µM (inactive); in the experiment on A549 it was > 100 µM (inactive); with ACHN, > 100 µM (inactive); in the experiment with HL-60, > 10 µM (inactive); in the experiment on HOP-62 it was > 100 µM (inactive); in the experiment on HOP-92 it was > 100 µM (inactive). The GI50 with HT-29, with KM12, with LOX IMVI, in the experiment on MDA-MB-435, in the experiment on Malme-3M and in the experiment with NCI/ADR-RES was > 100 µM (inactive) throughout. Moreover, the GI50 in the experiment with OVCAR-4, in the experiment with PC-3, with RXF 393, in the experiment on SK-OV-3, in the experiment with SN12C and with SW-620 was > 100 µM (inactive) each time. The GI50 in the experiment with UACC-257 and in the experiment on UACC-62 was > 100 µM (inactive) each time.

For `COc1cc(/C=N/N=C(\N)NO)cc(OC)c1OC`, the GI50 with A498 was 46.3 µM (inactive); in the experiment on A549 it was 18.7 µM (inactive); in the experiment on ACHN, 21.5 µM (inactive); in the experiment on HL-60, 23 µM (inactive); in the experiment on HOP-62, 27.4 µM (inactive); in the experiment with HOP-92, 23.5 µM (inactive). For the same compound, the GI50 with HT-29 is 22.8 µM (inactive); in the experiment on KM12, 18.7 µM (inactive); in the experiment with LOX IMVI, 31.1 µM (inactive); in the experiment on MDA-MB-435, 44.6 µM (inactive); with Malme-3M, 22 µM (inactive); in the experiment with NCI/ADR-RES, 15.7 µM (inactive). Further, the GI50 with OVCAR-4 was 40.8 µM (inactive); in the experiment with PC-3 it was 44.6 µM (inactive); in the experiment on RXF 393, 52.6 µM (inactive); with SK-OV-3 it was 67.8 µM (inactive); with SN12C, 33.8 µM (inactive); with SW-620, 50 µM (inactive). The GI50 in the experiment with UACC-257 is 43.1 µM (inactive); in the experiment with UACC-62, 13.5 µM (inactive).
